Consider 7 molecules from US8008331B2, “Benzothiazol-2-one derivatives as lipase and phospholipase inhibitors” (Sanofi-Aventis, priority 2005, dated 2011).

For this test, the target named is T1, endothelial lipase (EL) (Homo sapiens, UniProt Q9Y5X9).
T1 construct: made in house; host or cells: recombinant cell lines (CHO, HEK293); concentrated conditioned medium
T1 sequence (Q9Y5X9 21-500): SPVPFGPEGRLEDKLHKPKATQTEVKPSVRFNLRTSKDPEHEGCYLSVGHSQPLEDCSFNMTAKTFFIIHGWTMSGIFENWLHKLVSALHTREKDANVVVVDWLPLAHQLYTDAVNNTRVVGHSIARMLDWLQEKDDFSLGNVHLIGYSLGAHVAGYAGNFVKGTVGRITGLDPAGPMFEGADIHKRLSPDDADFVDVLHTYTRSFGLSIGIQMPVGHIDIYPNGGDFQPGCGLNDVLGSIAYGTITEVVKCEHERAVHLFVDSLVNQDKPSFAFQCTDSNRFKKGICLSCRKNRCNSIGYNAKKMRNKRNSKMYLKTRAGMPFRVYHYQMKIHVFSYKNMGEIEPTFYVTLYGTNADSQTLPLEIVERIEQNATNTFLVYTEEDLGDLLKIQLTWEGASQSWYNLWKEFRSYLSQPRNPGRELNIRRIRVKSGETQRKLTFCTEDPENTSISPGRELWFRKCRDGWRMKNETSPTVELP
In words: Further EL inhibition assay. In kind it is biochemical. To be noted: phospholipase substrate (Bodipy-labelled phosphocholine), 37° C., 90 minutes, EL from conditioned medium of recombinant cell lines (CHO, HEK293). From the text:
EL is released as secretory protein in high concentration into cell culture medium (conditioned medium) by recombinant cell lines (CHO, HEK293). This is employed as enzyme solution after concentration.
The enzymatic activity is reduced as a function of the inhibitor concentration used, and the inhibitor concentration at which a half-maximum enzymatic activity is observed is called IC50.
The phospholipase-specific substrate 1,2-bis(4,4-difluoro-5,7-dimethyl-4-bora-3a,4a-diaza-s-indacene-3-undecanoyl)-sn-glycero-3-phosphocholine, (manufacturer Molecular Probes) is used to characterize the enzymatic activity of endothelial lipase and the effect of inhibitors. Hydrolysis of the A1 ester linkage of this phospholipid by the enzyme liberates the fluorescent dye Bodipy which can be detected after separation by thin-layer chromatography on an HPTLC plate (silica gel 60, Merck) or directly in the reaction vessel by measuring the fluorescence.
The substrate solution is prepared by dissolving 100 μg of 1,2-bis(4,4-difluoro-5,7-dimethyl-4-bora-3a,4a-diaza-s-indacene-3-undecanoyl)-sn-glycero-3-phosphocholine (manufacturer Molecular Probes) in 100 μl of DMSO and taking up in 2.4 mg of tripalmitin (Sigma) in 393 μl of chloroform which comprises 20 mg/ml DOP-choline (1,2-dioleoyl-sn-glycero-3-phosphocholine). 39.3 μl of this lipid mixture are transferred into a fresh reaction vessel, and the solvent is evaporated off. The lipid mixture is dissolved in 4 ml of 200 mM TRIS-HCl, 150 mM sodium chloride, pH=7.4, by sonication twice. The subsequent enzymic reaction takes place at 37° C. for 90 minutes. For this purpose, 20 μl of the substrate solution are incubated with 2 μl of inhibitor of appropriate concentration (dissolved in 10% DMSO, using 10% strength DMSO solution for control) and 2 μl of enzyme solution (conditioned medium). The 4 μl of the assay mixture are loaded onto an HPTLC plate (silica gel 60, Merck), and the liberated fluorescent dye is separated for detection with an eluent (diethyl ether:petroleum benzine:acetic acid [78:22:1]). After evaporation of the eluent, the plate is read in a fluorescence scanner. An increased liberation of the fluorescent dye in the uninhibited reaction is to be observed as a measure of the enzymic activity.
By IC50 is commonly meant the point on the concentration scale where inhibition reaches its midpoint. Regarding `CCCCCCNC(=O)n1c(=O)sc2cc(Br)ccc21` [Example 5, 6-Bromo-2-oxobenzothiazole-3-hexylcarboxamide], the 50% inhibitory concentration (IC50) is 0.435 µM.

Consider `CCCCCCCNC(=O)n1c(=O)sc2ccc(Cl)cc21` [Example 6, 5-Chloro-2-oxobenzothiazole-3-heptylcarboxamide], for which the IC50 was 0.014 µM. Consider `Cc1ccccc1CNC(=O)n1c(=O)sc2ccccc21` [Example 3, 2-Oxobenzothiazole-3-(2-methylbenzyl)carboxamide], for which the IC50 was found to be 0.052 µM. The result for `CCCCCCNC(=O)n1c(=O)sc2ccc(C(F)(F)F)cc21` [Example 7, 2-Oxo-5-trifluoromethylbenzothiazole-3-hexylcarboxamide] reads 0.12 µM. The result for `CCCCCCNC(=O)n1c(=O)sc2ccccc21` [Example 1, 2-Oxobenzothiazole-3-hexylcarboxamide] reads 0.16 µM. As to `CCCCCCCNC(=O)n1c(=O)sc2ccccc21` [Example 2, 2-Oxobenzothiazole-3-heptylcarboxamide], the IC50 was found to be 0.051 µM. The result for `Cc1cccc(CNC(=O)n2c(=O)sc3ccccc32)c1` [Example 4, 2-Oxobenzothiazole-3-(3-methylbenzyl)carboxamide] reads 0.215 µM.
